Data taken from ChEMBL document CHEMBL3507680, “University of Dundee, Gates Library screen for HepG2 cell viability”.

Assay: Human HepG2 cell viability assay in 384 well format
Format: toxicity, cell-based
Set-up: dose 125 nL, time 70.5 hour; cytotoxicity at 70.5 h: concentration not given beside the values
Conditions: HepG2 cells, read-out: Inhibition

Structure (SMILES)	cytotoxicity at 70.5 h [%]
Cc1cnn(CC2CCCCN2Cc2nccn2CC(F)(F)F)c1 (configuration not stated)	4.47
CCc1n[nH]c(C2CN(C(=O)c3ccnc(N(C)C)c3)CCO2)n1 (configuration not stated)	20.1
CCc1nnc(CN2CCC(N3CCN(CC)C3=O)CC2)o1	-16.5
Cc1nc(CN2CCN(C(=O)c3sccc3C)CC2)cs1	-11.5
COc1ccc(CCC(=O)N2CCCCC2Cn2cccn2)cc1F (configuration not stated)	-7.2
CCCn1[nH]cc/c1=N\C(=O)CN1CCc2cnc(C(C)C)nc2C1	-3.5
CC(Cn1cccn1)NC(=O)NCc1ccc(S(C)(=O)=O)cc1 (configuration not stated)	11.7
COc1ccc(C(=O)N(C)Cc2nnc3ccccn23)c(OC)c1OC	-11.4
Cn1ccnc1CN1CCN(CC(O)c2ccc(F)cc2)CC1 (configuration not stated)	-3.86
Nc1nc(CN2CCOC(Cn3cccn3)C2)nc2ccccc12 (configuration not stated)	-11.8
CC(=O)Nc1nc(CN2CCOC(Cn3cccn3)C2)cs1 (configuration not stated)	-5.08
Cc1ccc(C(=O)NC2CCN(C(=O)NCc3ccccn3)CC2)o1	-8.93
CCN1CCN(C2CCN(Cc3nnc(C4CC4)o3)CC2)C1=O	12.8
Cc1cnn(CC2CCCN2C(=O)c2n[nH]c(=O)c3ccccc23)c1 (configuration not stated)	-7.98
O=C(CCc1ccc(F)c(F)c1)N1CCCCC1Cn1cccn1 (configuration not stated)	-7.69
O=C(CCc1ccsc1)N1CCCCC1Cn1cccn1 (configuration not stated)	-9.96
CC(C)c1ccc(C(O)CN2CCN(Cc3nccn3C)CC2)cc1 (configuration not stated)	-3.6
CN(Cc1ccc(-n2cccn2)cc1)CC1CCCN1c1cccnn1 (configuration not stated)	-10.7
CCc1n[nH]c(C2CN(C(=O)c3ccc4c(c3)CCCC4)CCO2)n1 (configuration not stated)	-8.34
CCc1n[nH]c(C2CN(C(=O)c3ccc4c(c3)CCC4)CCO2)n1 (configuration not stated)	-2.27
Cc1cnn(CC2CN(Cc3nc4ccccc4c(=O)[nH]3)CCO2)c1 (configuration not stated)	-4.67
Cc1cnn(CC2CN(CCCc3nc4ccccc4o3)CCO2)c1 (configuration not stated)	-0.695
O=C(NCCn1ccnc1)NCC(c1ccco1)N1CCCC1 (configuration not stated)	9.47
Cc1cnn(CC2CCCN2C(=O)c2csc(C(C)C)n2)c1 (configuration not stated)	17.5

Structure (SMILES)	cytotoxicity at 70.5 h [%]
O=C(CNCCn1cccn1)NCC1(c2ccccc2)CCCC1	0.609
O=C(CNCCn1cccn1)NCC1(c2ccccc2)CCOCC1	-7.33
c1ccc2oc(CCCN3CCOC(Cn4cncn4)C3)nc2c1 (configuration not stated)	14.6
O=C(NCCNc1ccc(C(F)(F)F)cn1)c1ccc(Br)cc1	1.55
O=C(NCCNc1ccc(C(F)(F)F)cn1)c1ccc(F)cc1Cl	-3.01
O=C(NCCNc1ccc(C(F)(F)F)cn1)c1ccc(Cl)cc1F	1.38
CCn1cc(NC(=O)NCCN2CCc3ccccc3C2)cn1	4.14
CCN1CC(C(=O)NCc2cccnc2-n2cccn2)CC1=O (configuration not stated)	-7.76
O=C(CCn1cncn1)NCC(c1ccco1)N1CCCC1 (configuration not stated)	-4.48
O=C(CCc1ccsc1)N1CCC(N2CCNC2=O)CC1	3.98
CCc1nc(C2CCCN(C(=O)c3ccc(F)cc3)C2)no1 (configuration not stated)	-0.043
Cc1nc2c(c(C)c1CC(=O)NCc1ccccc1F)c(=O)[nH]n2C	-7.35
Cc1nc2c(c(C)c1CC(=O)NCc1cccs1)c(=O)[nH]n2C	-1.43
Cc1cnn(CC2CCCN2C(=O)c2csc(C3CC3)n2)c1 (configuration not stated)	-0.994
CCc1nc(C2CCCN(C(=O)c3ccc(O)nc3)C2)no1 (configuration not stated)	3.29
CCc1nc(C2CCCN(C(=O)NCCOC)C2)no1 (configuration not stated)	21.2
CCn1c(C)nnc1CN(C)C1CCN(CC2CCC2)C1 (configuration not stated)	26.1
COc1ccsc1C(=O)N1CCCN(Cc2cscn2)CC1	-5.36
CC(=O)N(Cc1ncc(C)o1)C1CCN(Cc2ccccc2F)C1 (configuration not stated)	-2.68
CC(CNC(=O)Nc1cn[nH]c1)N1CCCC1 (configuration not stated)	2.24
Cc1nc(C)n(CC2CCCN(CC3CCCCC3)C2)n1 (configuration not stated)	-1.64
COc1ccnc(N2CCN(C(=O)Cc3ccn(C(C)C)n3)CC2)n1	-5.11
Cc1ccsc1C(=O)N1CCCN(Cc2cscn2)CC1	-2.76
CCc1nc(C2CCCN(C(=O)c3c(C)noc3C)C2)no1 (configuration not stated)	20.6

Structure (SMILES)	cytotoxicity at 70.5 h [%]
Cc1nc(C)n(CC2CCCN2CCC(=O)N2CCCCC2)n1 (configuration not stated)	-5.35
Cc1nc(C)n(CC2CCCN(CC(=O)N3CCCC3)C2)n1 (configuration not stated)	-4.82
O=C(NCC(c1ccccc1)N1CCOCC1)Nc1cn[nH]c1 (configuration not stated)	1.36
COc1ccnc(N2CCN(C(=O)Cc3csc(C)n3)CC2)n1	1.2
Cc1nnc(C2Cc3ccccc3CN2Cc2nc(C(C)C)no2)o1 (configuration not stated)	1.77
CCn1cnnc1CNC(=O)N1CCN(C(C)C)CC1	26
Cc1nc(C)n(CC2CCCN(CCC(=O)NC3CCCCC3)C2)n1 (configuration not stated)	-3.01
COc1ccc(CC(=O)N2CCCCC2Cn2cc(C)cn2)cc1F (configuration not stated)	2.82
O=C(c1sccc1C1CC1)N1CCCN(Cc2cscn2)CC1	-0.238
Cc1ccc(OCCC(=O)N2CCN(c3cnccn3)CC2)cc1C	-4.94
O=C(CCOc1ccc(Cl)cc1)N1CCN(c2cnccn2)CC1	-11.5
CC(C)c1cc(NC(=O)CN2CCC(N3CCCCC3)CC2)on1	-1.37
CCOc1ncccc1NC(=O)NC1CCCN(c2ncccn2)C1 (configuration not stated)	-2.86
CCn1cc(NC(=O)NCc2ccc(CN3CCOCC3)cc2)cn1	-6.5
OC(COc1ccc(F)cc1)CN1CCC(Cn2cccn2)CC1 (configuration not stated)	10.3
CN(Cc1ccsc1)C(=O)CN1CCOC(Cn2cccn2)C1 (configuration not stated)	29
NC(=O)c1cc(NC(=O)NCCc2cc(F)cc(F)c2)ccc1F	10.2
Cc1ccc(-c2cc(CN3CCCC(Cn4cncn4)C3)on2)cc1 (configuration not stated)	27.6
O=S(=O)(CCCN1CCCC1Cn1cccn1)c1ccccc1 (configuration not stated)	-11.1
CCn1cc(NC(=O)CCc2ccc3c(c2)OCCCO3)cn1	10.1
CCS(=O)(=O)CCN1CCC(N(C)Cc2noc(C(C)C)n2)C1 (configuration not stated)	-5.52
COc1ccccc1OCC(=O)NS(=O)(=O)c1ccc(C)s1	-4.78
Cc1ccc(-c2nc(CN3CCCC(Cn4cncn4)C3)no2)cc1 (configuration not stated)	27.5
CCCc1nc(C)c(C(=O)NCCN2CCN(CC)CC2)s1	-5.5

Structure (SMILES)	cytotoxicity at 70.5 h [%]
CN(C)c1cc(C(=O)N2CCCN(Cc3cscn3)CC2)ccn1	-8.49
CCC(O)CN1CCN(C(=O)c2sccc2OC)CC1 (configuration not stated)	0.647
O=S(=O)(NCCN1CCCCC1Cn1cncn1)c1ccccc1 (configuration not stated)	-3.24
CCN(Cc1cccc2c1OCO2)C(=O)C(C)c1cccnc1 (configuration not stated)	1.7
Cc1cc(CN(C)C(=O)NCC(C)N2CCc3ccccc32)no1 (configuration not stated)	-2.66
CN(Cc1cccc(F)c1)C(=O)CN1CCOC(Cn2cccn2)C1 (configuration not stated)	-2.5
CC(=O)N1CCN(C(=O)CN2CCc3c(ncn3C3CC3)C2)CC1	6.66
OCC1CCCN1c1cc(NCc2ccc(Cl)s2)ncn1 (configuration not stated)	-2.35
CC(=O)N(Cc1noc(C)n1)C1CCN(Cc2ccon2)C1 (configuration not stated)	37.1
O=C(NCc1csc(Br)c1)c1ccncc1	-16.8
CC(C)c1nnc(NC(=O)NCc2ccnc(N(C)C)c2)s1	-19.1
Cc1cnn(C2CCCN(C(=O)Cc3cn4ccccc4n3)C2)c1 (configuration not stated)	-12.4
Cn1ccc(CN2CCC(CO)CC2)cc1=O	-9.02
Cc1cn2nc(N3CCCC3Cn3nc(C)cc3C)sc2n1 (configuration not stated)	-7.66
Cc1nn(C)c(C)c1C1CCCN1Cc1nc(C)c2ccccc2n1 (configuration not stated)	5.7
O=C(CN1CCc2c(ncn2C2CC2)C1)NC1CC1	-23.8
CCc1n[nH]c(C2CN(C(=O)CCc3cccs3)CCO2)n1 (configuration not stated)	13.9
Cc1ncc(CN(C)CC2CCCN2c2cccnn2)s1 (configuration not stated)	8.83
c1cnnc(N2CCCC2CNCc2cnc(N3CCCC3)nc2)c1 (configuration not stated)	-7.83
c1ccc(Cn2cc(CNC3CCc4ncnn4C3)cn2)cc1 (configuration not stated)	-7.61
O=C(c1csc(Br)c1)N1CCCC(n2ccnc2)C1 (configuration not stated)	12.4
Cc1csc(C2CCCCN2C(=O)CN(C)Cc2ccccc2)n1 (configuration not stated)	-8.36
COc1ccc(CN2CCCC(Cn3nc(C)nc3C)C2)cc1F (configuration not stated)	-8.47
Cc1oc(C)c(C(=O)NCc2cccc(NC(=O)CN(C)C)c2)c1C	-8.3

Structure (SMILES)	cytotoxicity at 70.5 h [%]
CC(=O)N(Cc1noc(C)n1)C1CCN(Cc2ccccc2C#N)C1 (configuration not stated)	-5.45
O=C(c1ccccc1OCC1CC1)N1CCCC(n2ccnc2)C1 (configuration not stated)	-9.12
Cc1ccc(N2CCCC(NCc3ccc(C)o3)C2)nn1 (configuration not stated)	-7.71
CCCn1[nH]cc/c1=N\C(=O)CN1CCc2c(nc(C(C)C)n2C)C1	18
Cc1cccc(-n2cc(C(=O)N3CCCC(n4ccnc4)C3)nn2)c1 (configuration not stated)	15.2
CC(C)c1nc2c(n1C)CCN(CC(=O)Nc1ccc(Cl)cn1)C2	-14.9
COc1ccc(CC(=O)N(C)Cc2nnc3ccccn23)cc1	-17.4
Cc1cccc(-n2cc(C(=O)N3CCCC(n4cccn4)C3)nn2)c1 (configuration not stated)	-13.8
Cc1cc(CN2CCN(C(=O)c3sccc3C3CC3)CC2)on1	-13.6
O=C1NCCN1C1CCN(CCc2cccs2)CC1	-11.4
CCN(Cc1nc2c(cnn2C)c(=O)[nH]1)Cc1cccs1	-7.33
CCc1ccc(OCC(O)CN2CCN(S(C)(=O)=O)CC2)cc1 (configuration not stated)	-5.82
CC(Cn1cccn1)NC(=O)CCc1ccc(S(N)(=O)=O)cc1 (configuration not stated)	-15.1
COc1ccc(C(=O)NCCc2nnc3ccccn23)c(OC)c1	8
Cc1cnn(CC2CCCN2C(=O)c2cc3ccccc3[nH]2)c1 (configuration not stated)	8.1
O=C(CCc1cccs1)N1CCCCC1Cn1cccn1 (configuration not stated)	-5.08
COc1ccc(CNC(=O)NC(C)Cn2cccn2)cc1O (configuration not stated)	-16.1
CCc1n[nH]c(C2CN(C(=O)c3csnn3)CCO2)n1 (configuration not stated)	-18.6
CCN1CCN(C2CCN(Cc3ncc(C(C)(C)C)o3)CC2)C1=O	-8.55
COc1c(CNCC(O)c2cccc(F)c2)c(C(C)C)nn1C (configuration not stated)	2.55
CC(=O)N(Cc1noc(C)n1)C1CCN(Cc2cc(C)on2)C1 (configuration not stated)	-2.83
